Results from publication PMC7339578, “Multiple circulating alkaloids and saponins from intravenous Kang-Ai injection inhibit human cytochrome P450 and UDP-glucuronosyltransferase isozymes: potential drug–drug interactions” (Chinese Medicine, 2020).
Values joined by “and” are separate entries in the source; they are usually repeats but may differ in a detail not shown here. Identical values can stand only once. Like-named read-outs stand apart in the source and are kept apart here.

Assays:
CYP2B6 = molecular target: T1, CYP2B6 (Homo sapiens, UniProt P20813); assay: Inhibition of recombinant CYP2B6 (probe bupropion); format: in vitro ADME
T1 sequence (P20813 1-491): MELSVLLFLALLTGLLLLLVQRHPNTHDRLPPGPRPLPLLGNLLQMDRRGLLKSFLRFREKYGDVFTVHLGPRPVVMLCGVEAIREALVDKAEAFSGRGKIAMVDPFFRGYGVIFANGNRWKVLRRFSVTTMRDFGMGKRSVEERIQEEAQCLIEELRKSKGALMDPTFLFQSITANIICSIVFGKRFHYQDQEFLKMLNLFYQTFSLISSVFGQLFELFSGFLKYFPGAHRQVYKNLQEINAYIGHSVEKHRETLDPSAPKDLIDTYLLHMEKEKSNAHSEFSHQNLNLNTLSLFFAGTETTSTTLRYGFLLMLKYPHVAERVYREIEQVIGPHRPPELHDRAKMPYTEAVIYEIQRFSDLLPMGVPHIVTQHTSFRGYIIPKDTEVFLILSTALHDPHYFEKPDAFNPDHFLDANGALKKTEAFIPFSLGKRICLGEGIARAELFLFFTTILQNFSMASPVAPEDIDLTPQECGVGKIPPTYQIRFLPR
Experimental: (§1) In this study, phenacetin (100 μM), coumarin (100 μM), bupropion (100 μM), paclitaxel (60 μM), tolbutamide (200 μM), mephenytoin (100 μM), chlorzoxazone (200 μM) and nifedipine (40 μM) have been used as the probe substrates for CYP1A2, 2A6, 2B6, 2C8, 2C9, 2C19, 2E1 and 3A4, respectively.

CYP2E1 = CYP2E1 (Homo sapiens, UniProt P05181); assay: Inhibition of recombinant CYP2E1 (probe chlorzoxazone)
Chain of CYP2E1 (P05181 whole entry): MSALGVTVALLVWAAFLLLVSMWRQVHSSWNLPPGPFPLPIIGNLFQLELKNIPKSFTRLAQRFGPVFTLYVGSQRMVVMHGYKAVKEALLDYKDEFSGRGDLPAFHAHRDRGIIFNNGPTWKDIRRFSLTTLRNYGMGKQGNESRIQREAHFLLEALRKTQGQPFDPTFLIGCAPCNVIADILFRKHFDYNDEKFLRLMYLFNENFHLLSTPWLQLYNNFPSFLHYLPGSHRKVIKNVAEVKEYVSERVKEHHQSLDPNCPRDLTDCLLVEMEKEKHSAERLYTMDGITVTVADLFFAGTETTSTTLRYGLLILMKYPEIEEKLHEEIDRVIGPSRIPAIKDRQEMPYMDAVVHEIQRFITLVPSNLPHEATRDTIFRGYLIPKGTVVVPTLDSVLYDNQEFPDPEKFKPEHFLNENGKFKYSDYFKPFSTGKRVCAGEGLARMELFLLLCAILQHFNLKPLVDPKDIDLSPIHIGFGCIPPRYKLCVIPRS
Experimental: Phase I incubation system (100 μL) contained Tris–HCl buffer (50 mM, pH = 7.4), MgCl2 (5 mM), each CYP isozyme, specific substrates, circulating compounds and NADPH (1 mM) as prescribed previously. After incubation (37 °C, 60 min), the reaction was terminated by ice-cold acetonitrile (100 μL), following by centrifugation at 13,800g for 10 min. The supernatant (8 μL) was acquired for ultra-high-performance liquid chromatography (UHPLC) system (Waters, Manchester, UK) analysis.
After optimization of incubation conditions (Additional file 1: Fig. S1), the substrates were incubated with each CYP isozyme at different protein concentrations (0.05 mg/mL for CYP1A2 and 3A4; 0.1 mg/mL for CYP2A6, 2B6, 2C8, 2C9, 2C19 and 2E1) in the absence (control) and presence of different mixture or herbal compounds (Kang-Ai injection and samples that Kang-Ai injection was diluted 10 times; 1, 10, and 100 μM for matrine and oxymatrine; 0.1, 1, 10 and 100 μM for astragalosides and ginsenosides).
The half-inhibition concentration (IC50) values were determined by non-linear regression analysis. […] The inhibition mechanism towards corresponding CYP and UGT isoforms were further explored.
The inhibition constant (Ki) values were obtained by multiple concentrations of substrates in the absence or presence of multiple concentrations of herbal compounds as described previously. […] (1)–(3), respectively. The model with the smallest Akaike information criterion (AIC) and Schwartz information criterion (SC) values was considered as the best model, following the obtained appropriate Ki values. Model fitting and parameter estimation were performed using Graphpad Prism V5 software (SanDiego, CA).

[1] = Biliary (hepatobiliary) excretion in rats after a 30-min infusion of Kang-Ai injection; format: in vivo, Sprague–Dawley rats; conditions: Kang-Ai injection 6 mL/kg iv
Summary of the method: (§2)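 Urine collected in metabolic cages at 0–4, 4–8, 8–12 h and bile at 0–3, 3–6, 6–9, 9–12 h after infusion start, weighed and frozen at −80 °C. Non-compartmental analysis; CLR and CLB as cumulative urinary or biliary amount divided by plasma AUC0-∞, fe-U and fe-B as cumulative amount/dose; mean ± SD (n = 3).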

CYP2C19 = CYP2C19 (Homo sapiens, UniProt P33261); assay: Inhibition of recombinant CYP2C19 (probe mephenytoin); format: in vitro ADME; conditions: recombinant isozyme; mean ± SD of triplicate; unit not given (IC50 classes in μM); read-out: IC50 towards CYP2C19
Chain of CYP2C19 (P33261 whole entry): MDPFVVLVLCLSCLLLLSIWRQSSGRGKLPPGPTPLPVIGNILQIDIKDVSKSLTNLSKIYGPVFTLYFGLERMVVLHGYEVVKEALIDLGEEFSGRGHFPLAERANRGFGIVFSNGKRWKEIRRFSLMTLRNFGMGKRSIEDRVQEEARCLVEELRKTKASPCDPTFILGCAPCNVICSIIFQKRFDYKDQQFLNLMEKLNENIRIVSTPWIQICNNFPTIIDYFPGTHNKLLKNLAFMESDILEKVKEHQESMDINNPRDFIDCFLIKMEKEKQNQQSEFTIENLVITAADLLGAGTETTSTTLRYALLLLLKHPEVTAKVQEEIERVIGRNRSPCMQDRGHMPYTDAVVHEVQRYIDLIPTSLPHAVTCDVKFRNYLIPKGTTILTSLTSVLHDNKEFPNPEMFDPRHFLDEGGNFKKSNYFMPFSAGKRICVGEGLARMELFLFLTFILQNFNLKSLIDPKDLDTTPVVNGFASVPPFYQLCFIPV
Experimental: as §1

[2] = Stability tests of analytes in rat plasma QC samples; format: in vitro ADME; conditions: rat plasma
Experimental: […] The dilution integrity was investigated by analyzing six replicate samples with each analyte, and each analyte were diluted 10-fold with blank rat matrix. Furthermore, the diluted samples were analyzed using freshly prepared calibration curve to calculate RE and RSD, which should be no more than ± 15% as criterion.

[3] = Urinary (renal) excretion in rats after a 30-min infusion of Kang-Ai injection; format: in vivo, Sprague–Dawley rats; conditions: Kang-Ai injection 6 mL/kg iv; for CL renal: male, Sprague-Dawley, urine and plasma, rat, read-out: CLR (renal excretory clearance) (converted); for fe-U,0–12h (fraction of dose excreted into urine): rat urine 0–12 h
Summary of the method: as §2

CYP3A4 = CYP3A4 (Homo sapiens, UniProt P08684); assay: Inhibition of recombinant CYP3A4 (probe nifedipine); format: in vitro ADME; conditions: for IC50: read-out: IC50 towards CYP3A4
Chain of CYP3A4 (P08684 whole entry): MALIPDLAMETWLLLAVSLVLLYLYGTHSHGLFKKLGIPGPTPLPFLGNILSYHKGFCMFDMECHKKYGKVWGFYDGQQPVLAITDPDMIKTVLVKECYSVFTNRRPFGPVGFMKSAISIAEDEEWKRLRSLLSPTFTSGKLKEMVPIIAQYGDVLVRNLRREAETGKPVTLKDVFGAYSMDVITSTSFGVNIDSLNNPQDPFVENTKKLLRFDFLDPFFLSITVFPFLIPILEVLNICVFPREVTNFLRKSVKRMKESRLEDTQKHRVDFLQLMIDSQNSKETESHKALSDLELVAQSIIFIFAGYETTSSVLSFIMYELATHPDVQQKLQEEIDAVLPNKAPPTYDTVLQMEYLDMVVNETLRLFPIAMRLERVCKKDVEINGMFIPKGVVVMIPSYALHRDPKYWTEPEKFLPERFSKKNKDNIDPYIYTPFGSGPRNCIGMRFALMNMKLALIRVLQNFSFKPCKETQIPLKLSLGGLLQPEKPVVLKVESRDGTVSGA
Experimental: as §1

[4] = recombinant isozyme, mean ± SD of triplicate, unit not given (IC50 classes in μM), read-out: IC50 towards CYP2B6
[5] = recombinant isozyme, mean ± SD of triplicate, unit not given (IC50 classes in μM)

CC(C)=CCC[C@](C)(O[C@@H]1O[C@H](CO[C@@H]2O[C@H](CO)[C@@H](O)[C@H](O)[C@H]2O)[C@@H](O)[C@H](O)[C@H]1O)[C@H]1CC[C@]2(C)[C@@H]1[C@H](O)C[C@@H]1[C@@]3(C)CC[C@H](O[C@@H]4O[C@H](CO)[C@@H](O)[C@H](O)[C@H]4O[C@@H]4O[C@H](CO)[C@@H](O)[C@H](O)[C@H]4O)C(C)(C)[C@@H]3CC[C@]12C [Compound D5, Ginsenoside Rb1]
IC50 (CYP2B6; [4]): > 100 µM | IC50 (CYP2E1): > 100 µM | detection in bile ([1]; rat bile): not detected in bile | IC50 (CYP2C19): > 100 µM | At -80 °C for 48 h, Mean±SD ([2]; nominal conc. 20 nM): 20.64 ± 1.63 nM | At -80 °C for 48 h, RE ([2]; nominal conc. 20 nM): 8.70% | Extracted samples at 8 °C for 18 h, Mean±SD ([2]; nominal conc. 20 nM): 17.96 ± 0.32 nM | Extracted samples at 8 °C for 18 h, RE ([2]; nominal conc. 20 nM): -11.74% | Short-term stability at room temperature for 6 h, Mean±SD ([2]; nominal conc. 20 nM): 20.30 ± 1.81 nM | Short-term stability at room temperature for 6 h, RE ([2]; nominal conc. 20 nM): 9.00% | Three freeze-thaw cycles (-80 °C ↔ 23 °C), Mean±SD ([2]; nominal conc. 20 nM): 19.99 ± 1.88 nM | Three freeze-thaw cycles (-80 °C ↔ 23 °C), RE ([2]; nominal conc. 20 nM): -10.85% | At -80 °C for 48 h, Mean±SD ([2]; nominal conc. 100 nM): 94.32 ± 8.04 nM | At -80 °C for 48 h, RE ([2]; nominal conc. 100 nM): -13.46% | Extracted samples at 8 °C for 18 h, Mean±SD ([2]; nominal conc. 100 nM): 101.02 ± 12.87 nM | Extracted samples at 8 °C for 18 h, RE ([2]; nominal conc. 100 nM): -13.83% | Short-term stability at room temperature for 6 h, Mean±SD ([2]; nominal conc. 100 nM): 91.65 ± 3.42 nM | Short-term stability at room temperature for 6 h, RE ([2]; nominal conc. 100 nM): -12.30% | Three freeze-thaw cycles (-80 °C ↔ 23 °C), Mean±SD ([2]; nominal conc. 100 nM): 108.29 ± 6.26 nM | Three freeze-thaw cycles (-80 °C ↔ 23 °C), RE ([2]; nominal conc. 100 nM): 12.24% | At -80 °C for 48 h, Mean±SD ([2]; nominal conc. 400 nM): 428.49 ± 29.97 nM | At -80 °C for 48 h, RE ([2]; nominal conc. 400 nM): 12.25% | Extracted samples at 8 °C for 18 h, Mean±SD ([2]; nominal conc. 400 nM): 409.55 ± 29.87 nM | Extracted samples at 8 °C for 18 h, RE ([2]; nominal conc. 400 nM): 9.12% | Short-term stability at room temperature for 6 h, Mean±SD ([2]; nominal conc. 400 nM): 388.96 ± 18.81 nM | Short-term stability at room temperature for 6 h, RE ([2]; nominal conc. 400 nM): -6.00% | Three freeze-thaw cycles (-80 °C ↔ 23 °C), Mean±SD ([2]; nominal conc. 400 nM): 441.95 ± 3.33 nM | Three freeze-thaw cycles (-80 °C ↔ 23 °C), RE ([2]; nominal conc. 400 nM): 11.44% | CL renal [3]: 0.00633 mL/min | fe-U,0–12h (fraction of dose excreted into urine) [3]: 6.41 ± 1.47% | IC50 (CYP3A4; [5]): > 100 µM

CC(C)=CCC[C@](C)(O[C@@H]1O[C@H](CO)[C@@H](O)[C@H](O)[C@H]1O)[C@H]1CC[C@]2(C)[C@@H]1[C@H](O)C[C@@H]1[C@@]3(C)CC[C@H](O[C@@H]4O[C@H](CO)[C@@H](O)[C@H](O)[C@H]4O[C@@H]4O[C@H](CO)[C@@H](O)[C@H](O)[C@H]4O)C(C)(C)[C@@H]3CC[C@]12C [Compound D2, Ginsenoside Rd]
inhibition type (smallest AIC and SC) (CYP2B6; CYP2B6): Noncompetitive inhibition | Ki (CYP2B6; CYP2B6, competitive model): 10.2 ± 2.1 µM | Ki (CYP2B6; CYP2B6, mixed-type model): 36.3 ± 10.2 µM | α (CYP2B6; CYP2B6, mixed-type model): 1.0 ± 0.4 | Ki (CYP2B6; CYP2B6, noncompetitive model): 37.2 ± 2.3 µM | Cmax/Ki ([I]/Ki) (CYP2B6; CYP2B6, selected model, rat plasma Cmax): 0.02 | IC50 (CYP2B6; bupropion 100 μM, read-out: IC50 against CYP2B6): 20.2 µM | IC50 (CYP2B6; [4]): 20.2 ± 12.4 µM | IC50 (CYP2E1): > 100 µM | fe-B,0–12h (fraction of dose excreted into bile) ([1]; rat bile 0–12 h): 5.55% and 5.55 ± 1.02% | IC50 (CYP2C19): > 100 µM | At -80 °C for 48 h, Mean±SD ([2]; nominal conc. 20 nM): 20.86 ± 2.70 nM | At -80 °C for 48 h, RE ([2]; nominal conc. 20 nM): 13.40% | Extracted samples at 8 °C for 18 h, Mean±SD ([2]; nominal conc. 20 nM): 21.52 ± 1.04 nM | Extracted samples at 8 °C for 18 h, RE ([2]; nominal conc. 20 nM): 11.29% | Short-term stability at room temperature for 6 h, Mean±SD ([2]; nominal conc. 20 nM): 20.41 ± 1.88 nM | Short-term stability at room temperature for 6 h, RE ([2]; nominal conc. 20 nM): -8.78% | Three freeze-thaw cycles (-80 °C ↔ 23 °C), Mean±SD ([2]; nominal conc. 20 nM): 21.38 ± 0.85 nM | Three freeze-thaw cycles (-80 °C ↔ 23 °C), RE ([2]; nominal conc. 20 nM): 11.74% | At -80 °C for 48 h, Mean±SD ([2]; nominal conc. 100 nM): 94.76 ± 3.45 nM | At -80 °C for 48 h, RE ([2]; nominal conc. 100 nM): -9.18% | Extracted samples at 8 °C for 18 h, Mean±SD ([2]; nominal conc. 100 nM): 93.92 ± 4.07 nM | Extracted samples at 8 °C for 18 h, RE ([2]; nominal conc. 100 nM): -9.39% | Short-term stability at room temperature for 6 h, Mean±SD ([2]; nominal conc. 100 nM): 96.61 ± 5.06 nM | Short-term stability at room temperature for 6 h, RE ([2]; nominal conc. 100 nM): -8.93% | Three freeze-thaw cycles (-80 °C ↔ 23 °C), Mean±SD ([2]; nominal conc. 100 nM): 101.66 ± 11.99 nM | Three freeze-thaw cycles (-80 °C ↔ 23 °C), RE ([2]; nominal conc. 100 nM): 13.24% | At -80 °C for 48 h, Mean±SD ([2]; nominal conc. 400 nM): 419.98 ± 19.52 nM | At -80 °C for 48 h, RE ([2]; nominal conc. 400 nM): 10.54% | Extracted samples at 8 °C for 18 h, Mean±SD ([2]; nominal conc. 400 nM): 411.97 ± 35.80 nM | Extracted samples at 8 °C for 18 h, RE ([2]; nominal conc. 400 nM): 9.32% | Short-term stability at room temperature for 6 h, Mean±SD ([2]; nominal conc. 400 nM): 362.78 ± 5.91 nM | Short-term stability at room temperature for 6 h, RE ([2]; nominal conc. 400 nM): -10.80% | Three freeze-thaw cycles (-80 °C ↔ 23 °C), Mean±SD ([2]; nominal conc. 400 nM): 397.28 ± 35.89 nM | Three freeze-thaw cycles (-80 °C ↔ 23 °C), RE ([2]; nominal conc. 400 nM): 9.66% | CL renal [3]: 0.0185 mL/min | fe-U,0–12h (fraction of dose excreted into urine) [3]: 19.00 ± 5.33% | fraction of dose excreted unchanged via renal plus hepatobiliary excretion (sum of fe-U and fe-B) ([3]; rat urine + bile, 0–12 h): about 25% | inhibition type (smallest AIC and SC) (CYP3A4; CYP3A4): Noncompetitive inhibition | Ki (CYP3A4; CYP3A4, competitive model): 8.7 ± 2.3 µM | Ki (CYP3A4; CYP3A4, mixed-type model): 44.2 ± 16.2 µM | α (CYP3A4; CYP3A4, mixed-type model): 0.6 ± 0.3 | Ki (CYP3A4; CYP3A4, noncompetitive model): 32.8 ± 2.2 µM | Cmax/Ki ([I]/Ki) (CYP3A4; CYP3A4, selected model, rat plasma Cmax): 0.02 | IC50 (CYP3A4; nifedipine 40 μM): 41 µM | IC50 (CYP3A4; [5]): 41 ± 25.8 µM
